Data from patent US20230085307A1, “PYRIDAZINONE COMPOUND AND HERBICIDE” (NISSAN CHEMICAL CORPORATION, priority 2019, published 2023).

How the values were obtained:
barnyard grass [1] = assay: Test Example 3: herbicidal effect by foliage application, Wagner pot (Table 18, symbol H); assay type: in vivo, barnyard grass (Echinochloa crus-galli)
Summary of the method: (§1)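 Plants were sown in alluvial soil held under 0.1–0.5 cm standing water and grown 14 days in a greenhouse at 25–30 °C. An emulsifiable formulation, water-diluted to the set dose, was then sprayed onto the foliage, and effects were scored three weeks later using previously defined criteria.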

southern crabgrass = assay: Test Example 5: herbicidal effect by foliage application, plastic box (Table 20, symbol F); assay type: in vivo, southern crabgrass (Digitaria ciliaris)
Summary of the method: (§2)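 Plants were sown into sterilized diluvial soil under about 1.5 cm cover and kept in a greenhouse at 25° C. to 30° C. Fourteen days on, foliage received an even spray of the diluted emulsion. Herbicidal or crop effect was judged three weeks afterwards.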

rice flat sedge = assay: Test Example 3: herbicidal effect by foliage application, Wagner pot (Table 18, symbol E); assay type: in vivo, rice flat sedge (Cyperus iria)
Summary of the method: as §1

velvetleaf = assay: Test Example 5: herbicidal effect by foliage application, plastic box (Table 20, symbol M); assay type: in vivo, velvetleaf (Abutilon theophrasti)
Summary of the method: as §2

wild oat = assay: Test Example 5: herbicidal effect by foliage application, plastic box (Table 20, symbol I); assay type: in vivo, wild oat (Avena fatua)
Summary of the method: as §2

lambsquarters = assay: Test Example 5: herbicidal effect by foliage application, plastic box (Table 20, symbol O); assay type: in vivo, lambsquarters (Chenopodium album)
Summary of the method: as §2

Italian ryegrass = assay: Test Example 5: herbicidal effect by foliage application, plastic box (Table 20, symbol K); assay type: in vivo, Italian ryegrass (Lolium multiflorum)
Summary of the method: as §2

blackgrass = assay: Test Example 5: herbicidal effect by foliage application, plastic box (Table 20, symbol J); assay type: in vivo, blackgrass (Alopecurus myosuroides)
Summary of the method: as §2

barnyard grass [2] = assay: Test Example 5: herbicidal effect by foliage application, plastic box (Table 20, symbol H); assay type: in vivo, barnyard grass (Echinochloa crus-galli)
Summary of the method: as §2

green foxtail = assay: Test Example 5: herbicidal effect by foliage application, plastic box (Table 20, symbol G); assay type: in vivo, green foxtail (Setaria viridis)
Summary of the method: as §2

persian speedwell = assay: Test Example 5: herbicidal effect by foliage application, plastic box (Table 20, symbol R); assay type: in vivo, Persian speedwell (Veronica persica); conditions: foliage application
Summary of the method: as §2

chickweed = assay: Test Example 5: herbicidal effect by foliage application, plastic box (Table 20, symbol P); assay type: in vivo, common chickweed (Stellaria media)
From the text: [Test Example 5] Herbicidal Effect Test by Foliage Application
Sterilized diluvial soil was placed in a plastic box having a length of 21 cm, a width of 13 cm, and a depth of 7 cm. The seeds of each of southern crabgrass, green foxtail, barnyard grass, wild oat, blackgrass, Italian ryegrass, windgrass, velvetleaf, redroot pigweed, lambsquarters, chickweed, false cleavers, persian speedwell, corn, soybean, rice, wheat, beet, and rapeseed were sowed in a spot-like manner and covered with the soil having a thickness of about 1.5 cm. Thereafter, the plants were grown in a greenhouse at 25° C. to 30° C. After 14-day growth of the plants, the emulsion agent of the compound of the present invention prepared according to Formulation Example 2 was diluted with water so as to achieve a predetermined herbicide amount, and the diluted emulsion agent was uniformly applied to a foliage part with a small-sized spray. Three weeks after the herbicide application, the effect of the herbicide on each plant was evaluated according to the criteria of Test Example 1.

redroot pigweed = assay: Test Example 5: herbicidal effect by foliage application, plastic box (Table 20, symbol N); assay type: in vivo, redroot pigweed (Amaranthus retroflexus)
Summary of the method: as §2

windgrass = assay: Test Example 5: herbicidal effect by foliage application, plastic box (Table 20, symbol L); assay type: in vivo, windgrass (Apera spica-venti); conditions: amount of applied herbicide 320 g/ha; foliage application after 14-day growth; evaluated three weeks after application
Summary of the method: as §2

Chinese sprangletop = assay: Test Example 3: herbicidal effect by foliage application, Wagner pot (Table 18, symbol D); assay type: in vivo, chinese sprangletop (Leptochloa chinensis)
Summary of the method: as §1

[3] = amount of applied herbicide 320 g/ha
[4] = foliage application, AAH 320 g/ha, evaluated three weeks after application
[5] = amount of applied herbicide 320 g/ha, foliage application after 14-day growth, evaluated three weeks after application
[6] = foliage application, 99 g/ha, three weeks after application

C=CCOc1c(C)nn(C)c(=O)c1-c1c(-c2ccc(OC(F)F)cc2)sc2ccc(F)cc12 [2-300]
herbicidal effect on H: barnyard grass (barnyard grass [1]; [3]): 3 (Herbicidal rate of 40% or more and less than 70%)
F: southern crabgrass, herbicidal effect (criteria 0-5) (southern crabgrass; [4]): 0 (Herbicidal rate of 5% or less (almost no effect))
herbicidal effect on E: rice flat sedge (rice flat sedge; [3]): 3 (Herbicidal rate of 40% or more and less than 70%)
M: velvetleaf, herbicidal effect (criteria 0-5) (velvetleaf; [4]): 1 (Herbicidal rate of 5% or more and less than 20%)
I: wild oat, herbicidal effect (criteria 0-5) (wild oat; [4]): 0 (Herbicidal rate of 5% or less (almost no effect))
O: lambsquarters, herbicidal effect (criteria 0-5) (lambsquarters; [4]): 5 (Herbicidal rate of 90% or more (almost completely withered))
K: Italian ryegrass, herbicidal effect (criteria 0-5) (Italian ryegrass; [4]): 0 (Herbicidal rate of 5% or less (almost no effect))
J: blackgrass, herbicidal effect (criteria 0-5) (blackgrass; [4]): 0 (Herbicidal rate of 5% or less (almost no effect))
H: barnyard grass, herbicidal effect (criteria 0-5) (barnyard grass [2]; [4]): 0 (Herbicidal rate of 5% or less (almost no effect))
G: green foxtail, herbicidal effect (criteria 0-5) (green foxtail; [4]): 0 (Herbicidal rate of 5% or less (almost no effect))
R: persian speedwell, herbicidal effect (criteria 0-5) (persian speedwell; AAH 320 g/ha, evaluated three weeks after application): 5 (Herbicidal rate of 90% or more (almost completely withered))
P: chickweed, herbicidal effect (criteria 0-5) (chickweed; [4]): 5 (Herbicidal rate of 90% or more (almost completely withered))
N: redroot pigweed, herbicidal effect (criteria 0-5) (redroot pigweed; [4]): 3 (Herbicidal rate of 40% or more and less than 70%)

CCCC(=O)Oc1c(C)nn(C)c(=O)c1-c1c(-c2ccccc2OCOC)sc2c(Cl)cccc12 [4-084]
herbicidal effect on barnyard grass (H) (barnyard grass [1]; 320 g/ha): 5 (Herbicidal rate of 90% or more (almost completely withered))
Herbicidal effect by foliage application, F: southern crabgrass (southern crabgrass; [5]): 3 (Herbicidal rate of 40% or more and less than 70%)
herbicidal effect on rice flat sedge (E) (rice flat sedge; 320 g/ha): 4 (Herbicidal rate of 70% or more and less than 90%)
Herbicidal effect by foliage application, L: windgrass (windgrass): 0 (Herbicidal rate of 5% or less (almost no effect))
Herbicidal effect by foliage application, M: velvetleaf (velvetleaf; [5]): 4 (Herbicidal rate of 70% or more and less than 90%)
Herbicidal effect by foliage application, I: wild oat (wild oat; [5]): 0 (Herbicidal rate of 5% or less (almost no effect))
Herbicidal effect by foliage application, O: lambsquarters (lambsquarters; [5]): 0 (Herbicidal rate of 5% or less (almost no effect))
Herbicidal effect by foliage application, K: Italian ryegrass (Italian ryegrass; [5]): 0 (Herbicidal rate of 5% or less (almost no effect))
Herbicidal effect by foliage application, J: blackgrass (blackgrass; [5]): 0 (Herbicidal rate of 5% or less (almost no effect))
Herbicidal effect by foliage application, H: barnyard grass (barnyard grass [2]; [5]): 3 (Herbicidal rate of 40% or more and less than 70%)
Herbicidal effect by foliage application, G: green foxtail (green foxtail; [5]): 2 (Herbicidal rate of 20% or more and less than 40%)
Herbicidal effect by foliage application, P: chickweed (chickweed; [5]): 4 (Herbicidal rate of 70% or more and less than 90%)
herbicidal effect on Chinese sprangletop (D) (Chinese sprangletop; 320 g/ha): 4 (Herbicidal rate of 70% or more and less than 90%)
Herbicidal effect by foliage application, N: redroot pigweed (redroot pigweed; [5]): 5 (Herbicidal rate of 90% or more (almost completely withered))

COc1c(C)cccc1-c1sc2ccccc2c1-c1c(O)c(C)nn(C)c1=O [1-067]
herbicidal effect on H (barnyard grass), rating 0-5 (barnyard grass [1]; 99 g/ha): 3 (Herbicidal rate of 40% or more and less than 70%)
herbicidal effect grade, F: southern crabgrass (southern crabgrass; [6]): 0 (Herbicidal rate of 5% or less (almost no effect))
herbicidal effect on E (rice flat sedge), rating 0-5 (rice flat sedge; 99 g/ha): 0 (Herbicidal rate of 5% or less (almost no effect))
herbicidal effect grade, M: velvetleaf (velvetleaf; [6]): 2 (Herbicidal rate of 20% or more and less than 40%)
herbicidal effect grade, I: wild oat (wild oat; [6]): 0 (Herbicidal rate of 5% or less (almost no effect))
herbicidal effect grade, O: lambsquarters (lambsquarters; [6]): 0 (Herbicidal rate of 5% or less (almost no effect))
herbicidal effect grade, K: Italian ryegrass (Italian ryegrass; [6]): 0 (Herbicidal rate of 5% or less (almost no effect))
herbicidal effect grade, J: blackgrass (blackgrass; [6]): 0 (Herbicidal rate of 5% or less (almost no effect))
herbicidal effect grade, H: barnyard grass (barnyard grass [2]; [6]): 0 (Herbicidal rate of 5% or less (almost no effect))
herbicidal effect grade, G: green foxtail (green foxtail; [6]): 0 (Herbicidal rate of 5% or less (almost no effect))
herbicidal effect grade, R: persian speedwell (persian speedwell; 99 g/ha, three weeks after application): 0 (Herbicidal rate of 5% or less (almost no effect))
herbicidal effect grade, P: chickweed (chickweed; [6]): 2 (Herbicidal rate of 20% or more and less than 40%)
herbicidal effect on D (Chinese sprangletop), rating 0-5 (Chinese sprangletop; 99 g/ha): 0 (Herbicidal rate of 5% or less (almost no effect))
herbicidal effect grade, N: redroot pigweed (redroot pigweed; [6]): 1 (Herbicidal rate of 5% or more and less than 20%)
